# From US5457092A, “Methods of promoting bone growth in mammals comprising administration of modified parathyroid hormone” (Gesellschaft fur Biotechnologische Forschung mbH (GBF), priority 1987, dated 1995)
# Legend:
# [1] = system: ROS 17/2.8 osteoblast-like cells; assay: CK specific activity in ROS 17/2.8 osteoblast-like cells; assay type: cell-based, rat
# [2] = system: ROS 17/2.8 osteoblast-like cells; assay: DNA synthesis in ROS 17/2.8 osteoblast-like cells; assay type: cell-based, rat
# [3] = system: ROS 17/2.8 osteoblast-like cells; assay: Cyclic AMP production in ROS 17/2.8 osteoblast-like cells; assay type: cell-based, rat
# Method: When cultures of the widely used model for osteoblasts, the osteoblast-likeclone of rat osteosarcoma, ROS 17/2.8 (Endocrinology (Baltimore), 107 (1980) 1494-1503=12; Majeska et al.), were incubated with full-length PTH and PTH fragments (Table 4), cyclic AMP production was stimulated only by bPTH(1-84) and hPTH(1-34), whereas hPTH(25-39), hPTH(27-48), hPTH(28-48) and hPTH(34-47) were ineffective.
# [4] = system: chondrocytes from sterna of 16-day-old embryonic chicks; assay: Stimulation of DNA synthesis in chondrocytes by PTH fragments (Table 1); assay type: cell-based, chick; conditions: for [^3 H]thymidine incorporation: 4 h; for E/C: stimulated / non-induced control cells
# Method: Chondrocytes were isolated from sterna of 16-day-old embryonic chicks according to J. Biol. Chem., 261 (1986) 7997-8001 (10; Yasui et al.) with some modifications. Collagenase was dissolved in Hanks' balanced salt solution (0.4 mM Na2 HPO4, 140 mN NaCl, 5.3 mM KCl, 0.4 mM MgSO4, 1.3 mM CaCl2, 0.4 mM KH2 PO4, 0.5 mM MglC2, 5 mM glucose, 0.05% gentamicin) at a concentration of 286 units/ml. Sterna were treated repeatedly for 30 min with collagenase solution at 37° C. Cells first released by this procedure were discarded because of their very poor responsiveness towards PTH. The collagenase treatment was subsequently repeated leading to a highly homogenous cell population of chondrocytes. The cells obtained by a second collagenase treatment were collected by centrifugation (1000 rpm, 10 min), washed twice with medium (Dulbecco's modified Eagle's medium, GIBCO, supplemented with NaHCO3 (45 mM), glutamine (2 mM), penicillin G/streptomycin (65 mg/1 and 100 mg/l, respectively), Hepes (10 mM, pH 7.2), and FCS (10% v/v) and counted.
# The DNA synthesis rate was assayed in monolayer culture by the incorporation of ]^3 H]thymidine into perchloric acid-precipitable material. […] After 17 h, the medium was replaced by 200 μl of serum-free medium. After 4 days, chondrocytes were incubated for 4 h with the appropriate effector and 1μ Ci of [^3 H]thymidine. Subsequently, medium was removed and the cells were washed twice with 200 μl of phosphate-buffered saline (PBS: 137 mM NaCl, 2.7 mN KCl, 1.5 mM KH2 PO4, 0.8 mN Na2 HPO4, pH 7.0). Then cells were lysed by 100 μl of 2% (v/v) Nonidet P- 40 and 2% (w/v) sodium dodecyl sulfate treatment and the perchloric acid-insoluble material was precipitated by adding an equal volume of ice-cold 2% (w/v) perchloric acid in the presence of 1% herring sperm DNA as carrier. After storage for 10 min at -20° C., the precipitated material of each well was transferred to glass fiber filters with a Scatron--As semiautomatic cell harvester. Filters were dried at 80° C. for 20 min, transferred into scintillation vials, and 2 ml of scintillation mixture (scintillator 299; United Technology Pachard) were added. Radioactivity of the samples was determined with a β counter (Minimax; United Technology Pachard). Each test consisted of 5 up to 10 identically treated wells and was repeated at least twice with freshly prepared chondrocytes.
# The incorporation of [^3 H]thymidine by non-induced control cells and by stimulated cells is shown by C and E, respectively. The results shown mean ±S.E. for n parallel cell cultures.
# [5] = system: osteoblast enriched rat embryo calvaria cell cultures; assay: CK specific activity in rat embryo calvaria cell cultures; assay type: cell-based; conditions: for increase of CK activity (in words): treated for 24 h; for CK specific activity, effect of fragment (experimental value/control value): 100 nM, 24 h, control 457 ± 46 nmol/min per mg of protein
# Method: (§1) FIG. 10 is a graphical representation showing the dose dependent stimulation by bPTH (1-84) of osteoblast enriched rat embryo calvaria cell cultures. Experimental details for the determination of cyclic AMP (.quadrature.) (15 min after stimulation) and incorporation of [^3 H]thymidine into DNA ( ) and CK ( ) specific activity (24 h after stimulation) are given below. The results are means ±S.E.M., N≥5. In several cases the S.E.M. was less than the size of the symbol. Control values were: cyclic AMP, 25±5 pmol/mg of protein; DNA, 240±30 c.p.m./μg of DNA; CK, 200±20 nmol/min per mg of protein. Statistical significance of differences between treated and corresponding control groups by Student's T test: *P<0.05; **P<0.01.
# (§2) Rat calvaria cultures were treated with fragments of PTH derived from the central portion of the molecule.
# [6] = system: osteoblast enriched rat embryo calvaria cell cultures; assay: Cyclic AMP production in rat embryo calvaria cell cultures; assay type: cell-based; conditions: 100 nM; 15 min; control 29 ± 2.9 pmol/mg of protein
# Method: as §1, §2
# [7] = system: osteoblast enriched rat embryo calvaria cell cultures; assay: DNA synthesis ([3H]thymidine incorporation) in rat embryo calvaria cell cultures; assay type: cell-based; conditions: 100 nM; 24 h; control 624 ± 73 c.p.m./μg of DNA
# Method: as §1
substance,measurement,setting,value
"hPTH(24-47): PTH fragment 24-47 as printed; probably a misprint of hPTH(34-47) (LRKKLQDVHNFVALGAPLAPRDAG; Parathyroid hormone; UniProt P01270 55-78, looked up, fragment)",stimulation of CK activity (in words),[1],stimulated by all of the cell fragments tested except
same,stimulation of DNA synthesis (in words),[2],stimulated by all of the cell fragments tested except
"hPTH(27-48): PTH fragment 27-48 as printed; probably a misprint of hPTH(28-47) (KLQDVHNFVALGAPLAPRDAGS; Parathyroid hormone; UniProt P01270 58-79, looked up, fragment)",stimulation of cyclic AMP production (in words),[3],ineffective
"hPTH(31-47): PTH fragment 31-47, human source; comparative example (VHNFVALGAPLAPRDAG; Parathyroid hormone; UniProt P01270 62-78, looked up, fragment) [reference compound]",[^3 H]thymidine incorporation,"[4]; 5.3 × 10^-5 mol/l, control 139 ± 6",176 ± 8 cpm
same,E/C,[4]; 5.3 × 10^-5 mol/l,1.27
same,[^3 H]thymidine incorporation,"[4]; 5.3 × 10^-6 mol/l, control 139 ± 6",178 ± 35 cpm
same,E/C,[4]; 5.3 × 10^-6 mol/l,1.28
same,[^3 H]thymidine incorporation,"[4]; 5.3 × 10^-7 mol/l, control 139 ± 6",178 ± 24 cpm
same,E/C,[4]; 5.3 × 10^-7 mol/l,1.28
same,[^3 H]thymidine incorporation,"[4]; 5.3 × 10^-8 mol/l, control 139 ± 6",165 ± 20 cpm
same,E/C,[4]; 5.3 × 10^-8 mol/l,1.19
same,increase of CK activity (in words),[5],inactive
"hPTH(28-39): PTH fragment 28-39, human source (LQDVHNFVALGA; Parathyroid hormone; UniProt P01270 59-70, looked up, fragment)",[^3 H]thymidine incorporation,"[4]; 7.6 × 10^-4 mol/l, control 324 ± 18",387 ± 41 cpm
same,E/C,[4]; 7.6 × 10^-4 mol/l,1.19
same,[^3 H]thymidine incorporation,"[4]; 7.6 × 10^-5 mol/l, control 324 ± 18",399 ± 47 cpm
same,E/C,[4]; 7.6 × 10^-5 mol/l,1.23
same,[^3 H]thymidine incorporation,"[4]; 7.6 × 10^-6 mol/l, control 324 ± 18",324 ± 45 cpm
same,E/C,[4]; 7.6 × 10^-6 mol/l,1.00
same,[^3 H]thymidine incorporation,"[4]; 7.6 × 10^-7 mol/l, control 324 ± 18",473 ± 74 cpm
same,E/C,[4]; 7.6 × 10^-7 mol/l,1.46
same,[^3 H]thymidine incorporation,"[4]; 7.6 × 10^-8 mol/l, control 324 ± 18",319 ± 39 cpm
same,E/C,[4]; 7.6 × 10^-8 mol/l,0.97
"hPTH(29-47): PTH fragment 29-47, human source (QDVHNFVALGAPLAPRDAG; Parathyroid hormone; UniProt P01270 60-78, looked up, fragment)",[^3 H]thymidine incorporation,"[4]; 4.8 × 10^-5 mol/l, control 139 ± 6",273 ± 30 cpm
same,E/C,[4]; 4.8 × 10^-5 mol/l,1.96
same,[^3 H]thymidine incorporation,"[4]; 4.8 × 10^-6 mol/l, control 139 ± 6",225 ± 20 cpm
same,E/C,[4]; 4.8 × 10^-6 mol/l,1.62
same,[^3 H]thymidine incorporation,"[4]; 4.8 × 10^-7 mol/l, control 139 ± 6",273 ± 33 cpm
same,E/C,[4]; 4.8 × 10^-7 mol/l,1.96
same,[^3 H]thymidine incorporation,"[4]; 4.8 × 10^-8 mol/l, control 139 ± 6",138 ± 15 cpm
same,E/C,[4]; 4.8 × 10^-8 mol/l,0.99
same,"Cyclic AMP concentration, effect of fragment (experimental value/control value)",[6],0.57 ± 0.47
same,"CK specific activity, effect of fragment (experimental value/control value)",[5],1.67 ± 0.13
same,increase of CK activity (in words),[5],stimulatory but to a lesser degree
same,"[3H)Thymidine incorporation, effect of fragment (experimental value/control value)",[7],1.96 ± 0.14
"hPTH(33-47): PTH fragment 33-47, human source; inactive fragment (NFVALGAPLAPRDAG; Parathyroid hormone; UniProt P01270 64-78, looked up, fragment) [reference compound]",increase of CK activity (in words),[5],inactive
"hPTH(30-47): PTH fragment 30-47, human source; comparative example (DVHNFVALGAPLAPRDAG; Parathyroid hormone; UniProt P01270 61-78, looked up, fragment) [reference compound]",[^3 H]thymidine incorporation,"[4]; 5.1 × 10^-5 mol/l, control 139 ± 6",248 ± 31 cpm
same,E/C,[4]; 5.1 × 10^-5 mol/l,1.78
same,[^3 H]thymidine incorporation,"[4]; 5.1 × 10^-6 mol/l, control 139 ± 6",193 ± 20 cpm
same,E/C,[4]; 5.1 × 10^-6 mol/l,1.39
same,[^3 H]thymidine incorporation,"[4]; 5.1 × 10^-7 mol/l, control 139 ± 6",222 ± 19 cpm
same,E/C,[4]; 5.1 × 10^-7 mol/l,1.60
same,[^3 H]thymidine incorporation,"[4]; 5.1 × 10^-8 mol/l, control 139 ± 6",169 ± 23 cpm
same,E/C,[4]; 5.1 × 10^-8 mol/l,1.22
same,"Cyclic AMP concentration, effect of fragment (experimental value/control value)",[6],1.00 ± 0.22
same,"CK specific activity, effect of fragment (experimental value/control value)",[5],1.27 ± 0.03
same,increase of CK activity (in words),[5],slightly stimulatory
same,"[3H)Thymidine incorporation, effect of fragment (experimental value/control value)",[7],1.86 ± 0.18
"hPTH(29-39): PTH fragment 29-39 as printed; probably a misprint of hPTH(25-39) (QDVHNFVALGA; Parathyroid hormone; UniProt P01270 60-70, looked up, fragment)",increase of CK activity (in words),[5],maximally active
"hPTH(32-47): PTH fragment 32-47 as printed; at this place probably a misprint of hPTH(28-47) (HNFVALGAPLAPRDAG; Parathyroid hormone; UniProt P01270 63-78, looked up, fragment)",increase of CK activity (in words),[5],maximally active
